Consider 13 molecules from patent US11952365B2, “Anti-viral compounds” (Aligos Therapeutics, Inc., priority 2020, dated 2024).

The target of data set [1] is T1, 3CLpro (Severe acute respiratory syndrome coronavirus 2, UniProt P0DTD1). The data set can be described thus: SARS-CoV-2 3CLpro protease assay (duplex, SAMDI-MS). The class given is biochemical. The arrangement: For the duplex assay, 3CLpro and HRV3C was added. Conditions: 3CLpro, 30 mins preincubation, class symbols; read-out: SARS-Cov-2 IC50.
The target in data set [2] is HRV3C (Human rhinovirus 14, UniProt P03303). The data set can be described thus: HRV3C protease assay (duplex, SAMDI-MS). The class given is biochemical, HRV. Conditions: 30 mins preincubation. An outline of the steps:
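HRV3C was preincubated 30 min with compound alongside 3CLpro at ambient temperature, then two biotinylated peptide substrates were added for 30 min. Quenching used 0.5% formic acid (final). Cleaved product was captured on neutravidin SAMDI arrays and quantified by MALDI-TOF as product/internal-standard AUC ratio; IC50 from four-parameter fit.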

Data set [3] addresses T2, human cathepsin L (Homo sapiens, UniProt P07711).
T2 construct: purchased R&D Systems
The data set can be described thus: cathepsin L assay. The class given is biochemical. Conditions: 10 pM human cathepsin L, Z-FR-AMC 2 μM, class symbols. An outline of the steps: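 Reactions began by adding 2 μM (final) Z-FR-AMC substrate to 10 pM human cathepsin L that had been preincubated 30 min with inhibitor. Kinetic AMC fluorescence at 355/460 nm over 30 min at 2-min intervals; four-parameter fitting gave IC50 values.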

The test system of data set [4] is human beta-coronavirus OC43. The data set can be described thus: microbe, parasite or virus in culture. The class given is cell-based. Conditions: OC43 in HeLa cells, 6 days at 33° C., class symbols, read-out: EC50.
The test system of data set [5] is HeLa cells. The data set can be described thus: Cytotoxicity plates without OC43 virus (cell-titer-glo). The class given is cell-based, human. Conditions: class symbols. An outline of the steps: (§1)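 Run as a virus-free counterpart of the OC43 cytopathic-effect assay. Attached HeLa cells received compound dilutions in EMEM with 2% FBS and were kept 6 days at 33 °C. Cell viability was then measured by CellTiter-Glo luminescence.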

Data set [6] deals with Huh7 cells. Conditions: read-out: Huh-7 (CC50), MTS, numeric bounds.
Data set [7] concerns Vero E6-eGFP cells. Conditions: read-out: VeroE6 + CP (CC50); Vero E6-eGFP cells with CP-100356, absence of virus, MTS; numeric bounds.
Data set [8] concerns SARS-CoV-2-GHB-03021/2020. In words: SARS-CoV-2 Infection Model in Huh7 Cells. The class given is cell-based. Conditions: SARS-CoV-2, day 4 p.i., MTS, class symbols.
The nature of data set [9]: in vitro. Conditions: African green monkey, VeroE6 + CP (CC50), Vero E6-eGFP cells with CP-100356, absence of virus, MTS.
Data set [10] in a line: in vitro. Conditions: human.
The subject of data set [11] is SARS-CoV-2-GHB-03021/2020. The data set can be described thus: microbe, parasite or virus in culture. The class given is cell-based. Conditions: read-out: VeroE6 + CP (EC50).
A short description of data set [12]: Cytotoxicity plates without OC43 virus (cell-titer-glo). The class given is cell-based, human. Conditions: human; HeLa cells without OC43 virus, class symbols. The essentials: as §1
Data set [13] deals with SARS-CoV-2. Conditions: cited from earlier work.
Data set [14] deals with T1, 3CLpro. Conditions: cited from earlier work.
The mark [15] stands for this setting: HRV3C, bound, read-out: HRV IC50.
Where [16] appears, read: Severe acute respiratory syndrome coronavirus 2, Huh-7, 96 h.
Where [17] appears, read: Severe acute respiratory syndrome coronavirus 2, Vero C1008, 96 h.
Where [18] appears, read: Betacoronavirus 1, OC43, HeLa, 144 h.
Setting [19] is: HRV3C, class symbols, read-out: HRV IC50.

Where two headings read alike, the source gives them in different places.

Chain of HRV3C (P03303 1538-1719): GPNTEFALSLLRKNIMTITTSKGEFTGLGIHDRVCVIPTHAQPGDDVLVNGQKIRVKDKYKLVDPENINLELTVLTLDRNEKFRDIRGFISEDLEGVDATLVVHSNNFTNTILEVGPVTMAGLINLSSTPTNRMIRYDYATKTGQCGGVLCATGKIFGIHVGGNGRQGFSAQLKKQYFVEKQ
T2 sequence (P07711 114-333): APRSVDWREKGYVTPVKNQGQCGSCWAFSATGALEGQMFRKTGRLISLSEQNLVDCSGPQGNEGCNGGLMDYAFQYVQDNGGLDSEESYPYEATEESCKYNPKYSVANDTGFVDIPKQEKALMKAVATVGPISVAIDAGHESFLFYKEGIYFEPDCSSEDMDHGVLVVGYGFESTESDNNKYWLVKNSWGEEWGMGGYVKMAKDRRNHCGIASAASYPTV

On to `COc1cccc2[nH]c(C(=O)N3Cc4ccccc4[C@H]3C(=O)N[C@@H](C[C@@H]3CCCNC3=O)C(=O)CO)cc12` [Compound 73_1], for which the IC50 (as a rule, the point on the concentration scale where inhibition reaches its midpoint) was 0.02 to 0.2 µM in [1], > 10 µM in data set [2] (setting [15]) and ≥ 10 µM in data set [3]. In data set [4], the EC50 (as a rule, the concentration giving half of the maximal effect) was in the range of 0.1 to 1 µM. In [5], the CC50 was > 10 µM.
Consider `COc1cccc2[nH]c(C(=O)N3Cc4ccccc4[C@@H]3C(=O)N[C@@H](C[C@@H]3CCCNC3=O)C(=O)CO)cc12` [Compound 73_2], for which the IC50 in [1] is 2 to 20 µM; in data set [2] (setting [15]), > 10 µM; in data set [3], ≥ 10 µM. Further, in [4], the EC50 lay in the range of 10 to 100 µM. In data set [5], the CC50 was > 10 µM.
As for `O=C1NCC[C@H]1C[C@H](NC(=O)[C@@H]1[C@H]2CCC[C@H]2CN1C(=O)c1cc2c([nH]1)C1CCC2C1)C(=O)CO` (stereo partly drawn) [Compound 157, (1S,3aR,6aS)-2-{3-azatricyclo[5.2.1.0^{2,6}]deca-2(6),4-diene-4-carbonyl}-N-[(2S)-4-hydroxy-3-oxo-1-[(3S)-2-oxopyrrolidin-3-yl]butan-2-yl]-hexahydro-1H-cyclopenta[c]pyrrole-1-carboxamide], the CC50 was > 50 µM in data set [6], > 50 µM in data set [7] and > 10 µM in data set [5]. For the same molecule, the IC50 in data set [1] is 0.02 to 0.2 µM; in [3], ≥ 10 µM. Also, the EC50 in [8] (read-out: Huh-7 (EC50)) was in the range of 1 to 10 µM; in [4], 0.1 to 1 µM.
Turning to `N#C[C@H](C[C@@H]1CCNC1=O)NC(=O)[C@@H]1[C@H]2CCC[C@H]2CN1C(=O)c1cc2c(Cl)ccc(Cl)c2[nH]1` [Compound 167, (1S,3aR,6aS)—N-[(1S)-1-cyano-2-[(3S)-2-oxopyrrolidin-3-yl]ethyl]-2-(4,7-dichloro-1H-indole-2-carbonyl)-hexahydro-1H-cyclopenta[c]pyrrole-1-carboxamide], the values for the IC50 in data set [1], in data set [2] (setting [15]) and in data set [3] were 0.2 to 2 µM, > 10 µM and ≥ 10 µM, respectively. Also, the EC50 in [8] (setting [16]) was < 1 µM; in data set [11] (setting [17]) it was < 1 µM; in data set [4] (setting [18]) it was 0.1 to 1 µM. Further, the CC50 in data set [9] (numeric bounds) was > 50 µM; in data set [10], > 10 µM. Moreover, the CC50 at 6 days in [12] was > 10 µM.
Turning to `O=C1NCC[C@H]1C[C@H](NC(=O)[C@@H]1[C@H]2CCC[C@H]2CN1C(=O)c1cc2c(Cl)ccc(-c3ccccc3)c2[nH]1)C(=O)CO` [Compound 168, (1S,3aR,6aS)-2-(4-chloro-7-phenyl-1H-indole-2-carbonyl)-N-[(2S)-4-hydroxy-3-oxo-1-[(3S)-2-oxopyrrolidin-3-yl]butan-2-yl]-hexahydro-1H-cyclopenta[c]pyrrole-1-carboxamide], the IC50 was 0.2 to 2 µM in data set [1], > 10 µM in data set [2] (setting [15]) and ≥ 10 µM in [3]. Further, the EC50 in [8] (setting [16]), in [11] (setting [17]) and in data set [4] (setting [18]) was 1 to 10 µM throughout. The CC50 was > 50 µM in data set [9] (numeric bounds) and > 10 µM in data set [10]. Moreover, in data set [12], the CC50 at 6 days is > 10 µM.
Turning to `Cc1cccc2[nH]c(C(=O)N3CCC4(CC4)C[C@H]3C(=O)N[C@@H](C[C@@H]3CCNC3=O)C(=O)C(=O)NC3CC3)cc12` [Compound 169], the IC50 in [1] lay within 0.02 to 0.2 µM; in data set [2] (setting [19]), 0.2 to 2 µM; in data set [3] it was 1 to 10 µM. For the same molecule, the EC50 in data set [8] (setting [16]), in data set [11] (setting [17]) and in data set [4] (setting [18]) was 1 to 10 µM throughout. The CC50 was > 50 µM in [9] (numeric bounds) and > 10 µM in data set [10]. Besides, the CC50 at 6 days in data set [12] was > 10 µM.
As for `O=C(NC1CC1)C(=O)[C@H](C[C@@H]1CCNC1=O)NC(=O)[C@@H]1CC2(CCN1C(=O)c1cc3c(C(F)(F)F)cccc3[nH]1)CC2` [Compound 170], the half-inhibitory concentration (IC50) in [1] fell in the range of 0.02 to 0.2 µM; in data set [2] (setting [19]) it was 0.2 to 2 µM; in data set [3] it was 0.1 to 1 µM. The EC50 is 1 to 10 µM in data set [8] (setting [16]), 10 to 100 µM in [11] (setting [17]) and 1 to 10 µM in [4] (setting [18]). The CC50 is > 50 µM in data set [9] (numeric bounds) and > 10 µM in data set [10]. Further, the CC50 at 6 days in [12] is > 10 µM.
With `COc1ccc2[nH]c(C(=O)N3CCC4(CC4)C[C@H]3C(=O)N[C@@H](C[C@@H]3CCNC3=O)C(=O)C(=O)NC3CC3)cc2c1` [Compound 171], the IC50 in data set [1] is 0.02 to 0.2 µM; in data set [2] (HRV IC50, HRV3C, class symbols), 2 to 20 µM; in [3], ≥ 10 µM. Besides, the EC50 in data set [8] (setting [16]), in data set [11] (setting [17]) and in data set [4] (setting [18]) was 1 to 10 µM throughout. The CC50 in [9] (numeric bounds) is > 50 µM; in data set [10], > 10 µM. Moreover, the CC50 at 6 days in data set [12] is > 10 µM.
Take `Cn1c(C(=O)N2CCC3(CC3)C[C@H]2C(=O)N[C@@H](C[C@@H]2CCNC2=O)C(=O)C(=O)NC2CC2)cc2ccccc21` [Compound 172]: the IC50 in data set [1] was < 0.02 µM; in [2] (setting [19]), 2 to 20 µM; in data set [3] it was 1 to 10 µM. Moreover, the values for the EC50 in [8] (setting [16]), in data set [11] (setting [17]) and in data set [4] (setting [18]) were < 1 µM, < 1 µM and 1 to 10 µM, respectively. For the same molecule, the CC50 is > 50 µM in data set [9] (numeric bounds) and > 10 µM in data set [10]. Also, the CC50 at 6 days in data set [12] is > 10 µM.
For the molecule `CC(C)OCCNC(=O)C(=O)[C@H](C[C@@H]1CCNC1=O)NC(=O)[C@@H]1[C@H]2CCC[C@H]2CN1C(=O)c1cc2c(Cl)cc(Cl)cc2[nH]1` [Compound 173], the IC50 was 0.02 to 0.2 µM in [1], > 10 µM in data set [2] (setting [15]) and ≥ 10 µM in data set [3]. Also, the values for the EC50 in [8] (setting [16]), in data set [11] (setting [17]) and in data set [4] (setting [18]) were 1 to 10 µM, < 1 µM and 0.1 to 1 µM, respectively. For the same molecule, the results for the CC50 in [9] (numeric bounds) and in data set [10] were > 50 µM and 1 to 10 µM, respectively. In [12], the CC50 at 6 days is > 10 µM.
As to `O=C(NCCOCC1CCCC1)C(=O)[C@H](C[C@@H]1CCNC1=O)NC(=O)[C@@H]1[C@H]2CCC[C@H]2CN1C(=O)c1cc2c(Cl)cc(Cl)cc2[nH]1` [Compound 174], the half-inhibitory concentration (IC50) in data set [1] lay within 0.02 to 0.2 µM; in [2] (setting [19]) it was 2 to 20 µM; in data set [3], 1 to 10 µM. The EC50 in [8] (setting [16]) was < 1 µM; in data set [11] (setting [17]), < 1 µM; in [4] (setting [18]), 0.1 to 1 µM. The CC50 in data set [9] (class symbols) and in [10] was 1 to 10 µM in each case. The CC50 at 6 days in data set [12] was > 10 µM.
With `CN1CCN(C(=O)N[C@@H](Cc2ccccc2)C(=O)N[C@H](/C=C/S(=O)(=O)c2ccccc2)CCc2ccccc2)CC1` [Compound K117777], the “inhibition of SARS-CoV-2” value in data set [13] (in VeroE6, A549-ACE2 and/or HeLa-ACE2) is recorded as “potent inhibition”. Besides, in data set [13] (when TMPRSS2 was expressed in A549-ACE2), the antiviral effect result is “abolished”. Further, the “inhibitory effect on the 3CLpro” value in [14] was “lacks an inhibitory effect”.
Turning to “N-benzyl-3-[[(2S)-1-(1H-indole-2-carbonyl)pyrrolidin-2-yl]formamido]-2-oxo-4-[(3S)-2-oxopyrrolidin-3-yl]butanamide [Compound 3]”, the CC50 in data set [7] is > 100 µM; in [5] it was > 10 µM. Also, the IC50 in data set [1] was in the range of 20 to 100 µM; in [2] (setting [19]), 2 to 20 µM. Also, the values for the EC50 in [11] and in data set [4] were > 100 µM and 10 to 100 µM, respectively.
